Experimental data from BigSolDB 2.1.

COc1cc(/C=C/C(=O)CC(=O)/C=C/c2ccc(O)c(OC)c2)ccc1O
solubility (mole fraction)
Conditions	278.15 K	283.15 K	288.15 K	293.15 K	298.15 K	303.15 K	308.15 K	313.15 K	318.15 K	323.15 K
in DMSO	0.137	0.16	0.184	0.211	0.24	0.271	0.303	0.338	0.375	0.413
in THF	0.113	0.134	0.157	0.183	0.211	0.239	0.27	0.302	0.336	0.371
in acetone	0.00834	0.00986	0.0118	0.0138	0.0162	0.0189	0.022	0.0257	0.0298	0.0345
in acetonitrile	0.00071	0.00083	0.00097	0.00113	0.00129	0.00149	0.00169	0.00194	0.00221	0.00253
in ethanol	0.00041	0.00048	0.00056	0.00065	0.00075	0.00086	0.00098	0.00111	0.00127	0.00145
in ethyl acetate	0.00176	0.00199	0.00227	0.00253	0.00285	0.00319	0.00357	0.00399	0.00447	0.00501
in isopropanol	0.00156	0.00177	0.002	0.00226	0.00254	0.00285	0.00319	0.00356	0.00398	0.00444
in m-xylene	0.00015	0.00018	0.00022	0.00026	0.00031	0.00036	0.00042	0.00049	0.00057	0.00066
in methanol	0.00029	0.00033	0.00038	0.00044	0.0005	0.00057	0.00066	0.00075	0.00087	0.001
in n-butanol	0.00049	0.00057	0.00066	0.00075	0.00086	0.00099	0.00114	0.00131	0.00151	0.00175
in n-heptane	5e-05	9e-05	0.00013	0.00017	0.00022	0.00027	0.00032	0.00038	0.00044	0.00052
in n-hexane	7e-05	0.00011	0.00015	0.00019	0.00024	0.00029	0.00035	0.00041	0.00048	0.00057
